Values of other authors in paper PMC10905719, “Accelerating Antimicrobial Peptide Discovery for WHO Priority Pathogens through Predictive and Interpretable Machine Learning Models” (ACS Omega, 2024).

Key:
P. aeruginosa ATCC 10148 = conditions: NewAMP_P, ref SI 3
Excerpt: page 6: NH2 8 LKKWLKKWTPKASQFFGLM- NewAMP_E AH-5 NH E. coli ATCC 25922 4.67 2 3 […] P. aeruginosa ATCC NewAMP_P RaCa-2 KC 10148 128 3 P. aeruginosa ATCC NewAMP_P RaCa-4 FLTFPGMTFGKLLGK 10148 No inhibition 3 […] P. aeruginosa ATCC NewAMP_P RaCa-6 GKQ 10148 No inhibition 3 […] P. aeruginosa ATCC NewAMP_P RaCa-7 SVGN 10148 No inhibition 3 P. aeruginosa ATCC NewAMP_P RaCa-8 FPAIICKVSKNC 10148 No inhibition 3 P. aeruginosa ATCC NewAMP_P RaCa-9 FYFPVSRKFGGK 10148 No inhibition 3 […] P. aeruginosa ATCC NewAMP_P RaCa-10 LEII 1 ...

S. aureus ATCC 6538P = conditions: NewAMP_S, ref SI 3
Excerpt: page 7: 29213 8 S. aureus ATCC NewAMP_S HJH-6 KKLLKKLLRLLKVLLR 29213 0.75 6 GWGAKRWGKRGWKWKRH NewAMP_S GW18 W-COONH S. aureus ATCC 6538 3.12 2 3 […] S. aureus ATCC NewAMP_S RaCa-2 KC 6538P 2-4 3 S. aureus ATCC NewAMP_S RaCa-4 FLTFPGMTFGKLLGK 6538P No inhibition 3 […] S. aureus ATCC NewAMP_S RaCa-6 GKQ 6538P No inhibition 3 […] S. aureus ATCC NewAMP_S RaCa-7 SVGN 6538P No inhibition 3 S. aureus ATCC NewAMP_S RaCa-8 FPAIICKVSKNC 6538P No inhibition 3 S. aureus ATCC NewAMP_S RaCa-9 FYFPVSRKFGGK 6538P No inhibition 3 […] S ...

E. coli ATCC 25922 = conditions: NewAMP_E, ref SI 3
Excerpt: page 5: Table S3 NewAMP database1-9 Sub-set Name Sequence Bacterial Strain MIC (µg/mL) NewAMP_E HJH-58 KKLLRLLKVLLR E. coli ATCC 25922 1.5 3 […] NewAMP_E RaCa-2 KC E. coli ATCC 25922 4-16 3 […] NewAMP_E RaCa-6 GKQ E. coli ATCC 25922 No inhibition NewAMP_E RaCa-83 FPAIICKVSKNC E. coli ATCC 25922 No inhibition 3 […] NewAMP_E RaCa-10 LEII E. coli ATCC 25922 No inhibition 5 […] NewAMP_E Hydr_2 KLL-NH E. coli ATCC 25922 512 2 5 […] NewAMP_E Hydr_3 KAG-NH E. coli ATCC 25922 512 2 NewAMP_E Hydr_45 FLPLIGRVFSGIL ... || page 6: NH2 8 LKKWLKKWTPKASQFFGLM- NewAMP_E AH-5 NH E. coli ATCC 25922 4.67 2 3 […] P. aeruginosa ATCC NewAMP_P RaCa-2 KC 10148 128 3 P. aeruginosa ATCC NewAMP_P RaCa-4 FLTFPGMTFGKLLGK 10148 No inhibition 3 […] P. aeruginosa ATCC NewAMP_P RaCa-6 GKQ 10148 No inhibition 3 […] P. aeruginosa ATCC NewAMP_P RaCa-7 SVGN 10148 No inhibition 3 P. aeruginosa ATCC NewAMP_P RaCa-8 FPAIICKVSKNC 10148 No inhibition 3 P. aeruginosa ATCC NewAMP_P RaCa-9 FYFPVSRKFGGK 10148 No inhibition 3 […] P. aeruginosa ATCC NewAMP_P RaCa-10 LEII 1 ...

Erythrocyte = tested on: Erythrocyte
Excerpt: page 8: 2 VGALAGFLYWHFLRKGTKM NewAMP_S Hm-AMP10 VGK S. aureus ST 88 248.00 NewAMP_S hHK-18 TGKASQFFGLM-NH S. aureus ATCC 151.63 2 25923 NewAMP_S AH-18 LKKWTGKASQFFGLM-NH S. aureus ATCC 222.71 2 25923 NewAMP_S AH-28 LKKWTLKASQFFGLM-NH S. aureus ATCC 229.89 2 25923 NewAMP_S AH-38 LKKWLKKWTGKASQFFGLM- S. aureus ATCC 9.18 NH2 25923 NewAMP_S AH-48 LKKWLKKWTLKASQFFGLM- S. aureus ATCC 4.70 NH2 25923 Sub-set Name Sequence Erythrocyte MHC(µg/mL) (% hemolysis) NewAMP_HE HJH-18 KLLKHKLLVTLA Erythrocyte 382.72a NewAMP_HE HJH-28 KLLKHKLLVTLR Erythrocyte 382.72a NewAMP_HE HJH-38 KLLKRKLLVTLR Erythrocyte 382 ...

Row | Sequence | MIC (P. aeruginosa ATCC 10148) | MIC (S. aureus ATCC 6538P) | MIC (E. coli ATCC 25922) | % hemolysis at MHC (Erythrocyte)
1 | FYFPVSRKFGGK [RaCa-9, newly published AMP of the NewAMP test set] | No inhibition | No inhibition | – | –
2 | FPAIICKVSKNC [RaCa-8, newly published AMP of the NewAMP test set] | No inhibition | No inhibition | No inhibition | –
3 | FILYGLIRFGRLLRK [Hm-AMP4, newly published AMP of the NewAMP test set] | – | – | – | 77%
4 | SNRDFFKVNIFRLCG [RaCa-11, newly published AMP of the NewAMP test set] | No inhibition | No inhibition | – | –
5 | KKLLKKLLRLLKVLLR [HJH-6, newly published AMP of the NewAMP test set] | – | – | – | 90%
6 | FLTFPGMTFGKLLGK [RaCa-4, newly published AMP of the NewAMP test set] | No inhibition | No inhibition | – | –
